Measurements from patent publication US6849635B2, “Sulfonamides” (SmithKline Beecham Corporation, priority 2001, dated 2005).

What was measured:
[1] = molecular target: T1, cloned human and rat GPR-14 (UniProt Q9UKP6); assay: Radioligand binding, [125I] h-U-II on HEK-293 cell membranes; conditions: HEK-293 cell membranes with stable cloned GPR-14, 200 pM [125I] h-U-II; species of receptor not given
T1 sequence (Q9UKP6 1-389): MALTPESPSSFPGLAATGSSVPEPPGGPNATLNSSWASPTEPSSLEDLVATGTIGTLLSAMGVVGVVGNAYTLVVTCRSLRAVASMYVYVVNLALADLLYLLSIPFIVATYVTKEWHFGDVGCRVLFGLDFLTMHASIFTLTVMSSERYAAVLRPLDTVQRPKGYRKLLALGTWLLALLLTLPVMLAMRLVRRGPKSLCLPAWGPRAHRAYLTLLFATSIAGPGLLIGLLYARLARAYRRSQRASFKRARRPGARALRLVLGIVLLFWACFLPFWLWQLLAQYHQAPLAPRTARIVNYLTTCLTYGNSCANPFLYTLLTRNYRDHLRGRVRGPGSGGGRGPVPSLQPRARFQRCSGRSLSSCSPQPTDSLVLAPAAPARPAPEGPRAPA
Protocol: HEK-293 cell membranes containing stable cloned human and rat GPR-14 (20 ug/assay) were incubated with 200 pM [125I] h-U-II (200 Ci/mmol^−1 in the presence of increasing concentrations of test compounds in DMSO (0.1 nM to 10 uM), in a final incubation volume of 200 ul (20 mM Tris-HCl, 5 mM MgCl2). Incubation was done for 30 minutes at room temperature followed by filtration GF/B filters with Brandel cell harvester. ^125I labeled U-II binding was quantitated by gamma counting. Nonspecific binding was defined by ^125I U-II binding in the presence of 100 nM of unlabeled human U-II. Analysis of the data was performed by nonlinear least square fitting.

melting point	Ki [1] [nM]	Compound
103 to 106 °C (dec.)		CN(C)CCOc1cc(NS(=O)(=O)c2ccc(Oc3cccc(Cl)c3C#N)cc2)ccc1Cl [Example 1, 4-(3-Chloro-2-cyano-phenoxy)N-[4-chloro-3-(2-dimethylamino-ethoxy)-phenyl]-benzenesulfonamide]
	520	CCN(CC)CCOc1cc(NS(=O)(=O)c2cc(Cl)c(Oc3ccc([N+](=O)[O-])cc3Cl)c(Cl)c2)ccc1Cl [Example 19, 3,5-Dichloro-N-[4-chloro-3-(2-diethylamino-ethoxy)-phenyl]-4-(2-chloro-4-nitro-phenoxy)-benzenesulfonamide]
